# Source: publication PMC9223267, “Serine hydroxymethyltransferase as a potential target of antibacterial agents acting synergistically with one-carbon metabolism-related inhibitors” (Communications Biology, 2022)
# “And” between values parts separate entries of the source, which are not always exact repeats. Equal values may be shown once. Read-outs that look alike come from different tables or passages of the source.
# Legend:
# [1] = tested on: E. faecium; experiment: Antibacterial activity evaluation (turbidity, OD600); type: cell-based, Enterococcus faecium (JCM5804); settings: Enterococcus faecium
# Protocol: (§1) E. faecium and E. faecalis were diluted to turbidity equivalents that matched 1.0 McFarland (McF) standard in distilled water (S. aureus and E. coli were also diluted to 0.5 McF), and additionally diluted 1:200 in Mueller–Hinton (MH) broth. The designated concentrations of the tested compounds were prepared by ten-fold serial dilutions directly in 96-well microtiter plates (IWAKI, Shizuoka, Japan), as previously described. […] The other compounds were serially diluted from 20 μM downwards (final concentration, 10 μM). […] Positive control wells included bacteria without any compound, and the negative control wells only contained MH broth. […] The optical density at 600 nm (OD600) was measured using a GloMax microtiter plate reader (Promega, WI, USA), and the EC50 values of each test compound and standard error were calculated by Microsoft Excel function, AVERAGE and STDEV/SQRT.
# [2] = tested on: E. faecium; experiment: Antibacterial assay with an excess concentration of biomolecules (Ser, Gly, inosine, dT, FA); type: cell-based, Enterococcus faecium (JCM5804); settings: Enterococcus faecium
# Protocol: as §1
# The ratio of the control EC50 (no competitors added) to the experimental EC50 (competitors added) was calculated for each test substance.
# [3] = tested on: E. faecalis; experiment: Antibacterial activity evaluation (turbidity, OD600); type: cell-based, Enterococcus faecalis (JCM7783); settings: Enterococcus faecalis, E. faecalis JCM7783
# Protocol: as §1
# [4] = tested on: S. aureus; experiment: as above; type: cell-based, Staphylococcus aureus (ATCC29213); settings: Staphylococcus aureus, S. aureus ATCC29213
# Protocol: as §1
# [5] = tested on: E. coli; experiment: as above; type: cell-based, Escherichia coli (ATCC25922); settings: Escherichia coli, E. coli ATCC25922
# Protocol: as §1
# [6] = tested on: efmSHMT; type: binding, Enterococcus faecium; settings: DSF; final drug concentration 50 μM
# Protocol: Protein samples were prepared as 20 μL aliquots containing 0.1 mg/mL protein (efmSHMT/ecSHMT), 1 μL of the ligand in DMSO (final drug concentration, 50 μM) and 2% or 4% SYPRO Orange (Invitrogen, MA, USA). […] Melting points were evaluated as the half-point of the maximum intensity of each curve.
# [7] = molecular target: efmSHMT (Enterococcus faecium, UniProt I3U4H4, M1V); experiment: biochemical; type: binding; settings: 5 μM efmSHMT, 10 mM Gly and 100 μM Ser
# Protocol: After adding Me-THF, the efmSHMT solution was incubated for 30 min at room temperature. The optical density at 500 and 600 nm (OD500 and OD600) were then measured using a nanodrop spectrophotometer[24],[25]. OD600 was used as the background. After detection, each concentration of inhibitor was added to the efmSHMT solution and incubated for 30 min at room temperature. OD500 and OD600 were measured. The relative OD500 intensity was calculated as relative OD500 = (OD500 – OD600)/(MAXOD500 – OD600), where MAXOD500 is the average OD500 value in the presence of 1000, 2000 and 4000 μM Me-THF without inhibitors. […] Here, IC50 is the concentration of inhibitor added to the efmSHMT solution and [Me-THF] is the EC50 in the presence of the inhibitor concentration. [EC50 without inhibitor] is the EC50 of Me-THF in the absence of the inhibitor.
# [8] = tested on: Caski cells; experiment: Cell cytotoxicity assay (Cell Counting Kit-8, 5 days); type: cell-based, human; settings: with each cell line (Caski, Hep-2 and Calu-3)
# Protocol: After serial dilution, 100 μL of FBS-containing medium including the cells was added to each well of the plate. […] All CC50 determining assays were conducted in duplicate or triplicate[39],[40].
# [9] = tested on: E. faecium; experiment: Bacterial viability assay (Microbial Viability Assay Kit-WST, OD450); type: cell-based, Enterococcus faecium
# Protocol: Living E. faecium were determined using the Microbial Viability Assay Kit-WST (DOJINDO, Tokyo, Japan). […] Positive control wells included bacteria seeded into MH broth without compounds, and the negative control wells contained MH broth only. […] Five microlitres of the colouring reagent were added to each well of the 96-well plate every 2 h after starting incubation with each compound.
# [10] = E. faecium JCM5804, read-out: EC50
# [11] = E. faecium JCM5804, read-out: pEC50 ± S.E. (converted)
# [12] = JCM5804, E. faecium JCM5804, 1 mM Inosine, read-out: EC50
# [13] = JCM5804, E. faecium JCM5804, 1 mM Inosine, read-out: pEC50 ± S.E. (converted)
# [14] = JCM5804, E. faecium JCM5804, 1 mM deoxythymidine, read-out: EC50
# [15] = JCM5804, E. faecium JCM5804, 1 mM deoxythymidine, read-out: pEC50 ± S.E. (converted)
# [16] = JCM5804, E. faecium JCM5804, 10 mM Glycine, read-out: EC50
# [17] = JCM5804, E. faecium JCM5804, 10 mM Glycine, read-out: pEC50 ± S.E. (converted)
# [18] = JCM5804, E. faecium JCM5804, 100 mM Serine, read-out: EC50
# [19] = JCM5804, E. faecium JCM5804, 100 mM Serine, read-out: pEC50 ± S.E. (converted)
# [20] = JCM5804, E. faecium JCM5804, 0.1 M folate, read-out: EC50
# [21] = JCM5804, E. faecium JCM5804, 0.1 M folate, read-out: pEC50 ± S.E. (converted)
# [22] = read-out: pEC50 ± S.E. (converted)
# efmSHMT (Enterococcus faecium, UniProt I3U4H4, M1V), sequence (I3U4H4 whole entry M1V): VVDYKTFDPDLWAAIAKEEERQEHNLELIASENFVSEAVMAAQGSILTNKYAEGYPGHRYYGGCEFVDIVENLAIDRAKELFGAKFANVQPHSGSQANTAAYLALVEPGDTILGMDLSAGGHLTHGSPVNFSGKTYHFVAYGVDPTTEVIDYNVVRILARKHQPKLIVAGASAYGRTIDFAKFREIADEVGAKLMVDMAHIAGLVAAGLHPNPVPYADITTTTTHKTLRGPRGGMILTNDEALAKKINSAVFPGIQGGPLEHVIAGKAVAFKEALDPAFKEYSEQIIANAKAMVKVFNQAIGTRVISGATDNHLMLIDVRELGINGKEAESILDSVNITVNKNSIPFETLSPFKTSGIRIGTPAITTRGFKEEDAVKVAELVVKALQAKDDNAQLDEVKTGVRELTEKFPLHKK
SMILES,"EC50 [1, 10] [nM]","EC50 [1, 11] [nM]","EC50 [2, 12] [nM]","EC50 [2, 13] [nM]","EC50 [2, 14] [nM]","EC50 [2, 15] [nM]","EC50 [2, 16] [nM]","EC50 [2, 17] [nM]","EC50 [2, 18] [nM]","EC50 [2, 19] [nM]","EC50 [2, 20] [nM]","EC50 [2, 21] [nM]",EC50 ([3]; read-out: EC50) [nM],"EC50 [3, 22] [nM]",EC50 ([4]; read-out: EC50) [nM],"EC50 [4, 22] [nM]",EC50 ([5]; read-out: EC50) [nM],"EC50 [5, 22] [nM]",further results
"CN[C@H](CC(C)C)C(=O)N[C@H]1C(=O)N[C@@H](CC(N)=O)C(=O)N[C@H]2C(=O)N[C@H]3C(=O)N[C@H](C(=O)N[C@H](C(=O)O)c4cc(O)cc(O)c4-c4cc3ccc4O)[C@H](O)c3ccc(c(Cl)c3)Oc3cc2cc(c3O[C@@H]2O[C@H](CO)[C@@H](O)[C@H](O)[C@H]2O[C@H]2C[C@](C)(N)[C@H](O)[C@H](C)O2)Oc2ccc(cc2Cl)[C@H]1O [VCM, vancomycin]",–,–,–,–,–,–,–,–,–,–,–,–,–,–,–,–,–,–,"EC50 ([1]; VCM in μg/mL, E. faecium JCM5804, read-out: EC50): 0.31 µg/mL; EC50 [2]: 0.29 µg/mL; EC50 ([2]; VCM in μg/mL, 1 mM Inosine, read-out: EC50): 0.34 µg/mL; EC50 ([2]; VCM in μg/mL, 1 mM deoxythymidine, read-out: EC50): 0.42 µg/mL; EC50 ([2]; VCM in μg/mL, 100 mM Serine, read-out: EC50): 0.3 µg/mL; EC50 ([2]; VCM in μg/mL, 0.1 M folate, read-out: EC50): 0.31 µg/mL; EC50 ([3]; VCM in μg/mL, read-out: EC50): 3.2 µg/mL; EC50 ([4]; VCM in μg/mL, read-out: EC50): 0.36 µg/mL; EC50 ([5]; VCM in μg/mL, read-out: EC50): > 100 µg/mL"
"O=c1[nH]c(=O)n([C@H]2C[C@H](O)[C@@H](CO)O2)cc1F [5-FdU, 5-fluoro-2′-deoxyuridine]",29,31.6,24,25.1,> 100000,> 100000,6.4,6.31,32,31.6,190,200,310,316,8.9,7.94,10000,10000,–
"Nc1nc2[nH]cc(CCc3ccc(C(=O)N[C@@H](CCC(=O)O)C(=O)O)cc3)c2c(=O)[nH]1 [PMX, pemetrexed]",–,–,0.074,0.0794,> 100000,> 100000,0.062,0.0631,0.25,0.251,1800,2000,> 100000,> 100000,> 100000,> 100000,> 100000,> 100000,"EC50 ([1]; JCM5804, E. faecium JCM5804, read-out: EC50): 0.052 nM; EC50 ([1]; JCM5804, E. faecium JCM5804, read-out: pEC50 ± S.E. (converted)): 0.0501 nM; ΔTm (thermal stability of efmSHMT) [6]: 0.9 °C; Ki ([7]; Ki, Cheng-Prusoff): 117000 nM; Ki ([7]; pKi ± pSE): 126000 nM"
"COc1cc(Cc2cnc(N)nc2N)cc(OC)c1OC [TMP, trimethoprim]",2.8,2.51,–,2.51,54000,50100,2.1,2,3.3,3.16,41,50.1,270,251,290,316,170,158,"selectivity index (S.I.): CC50 against each cell line / EC50 against E. faecium [8]: high bacterial selectivity; Relative bacterial viability ([9]; 2 nM, 0 hours, single values): 0.02108 and 0.02214 and 0.02363 and 0.02319 and 0.01396 and 0.01461 and 0.0211 and 0.02201; Relative bacterial viability ([9]; 2 nM, 2 hours, single values): 0.03256 and 0.03276 and 0.0358 and 0.03793 and 0.02817 and 0.0276 and 0.03152 and 0.02983; Relative bacterial viability ([9]; 2 nM, 8 hours, single values): 0.6778 and 0.6938 and 0.7383 and 0.6754 and 0.6268 and 0.6594 and 0.6905 and 0.6243; Relative bacterial viability ([9]; 2 nM, 10 hours, single values): 0.7078 and 0.7215 and 0.7487 and 0.6774; Relative bacterial viability ([9]; 2 nM, 12 hours, single values): 0.7931 and 0.8524 and 0.8435 and 0.6543 and 0.7061 and 0.7294 and 0.7396 and 0.7126; Relative bacterial viability ([9]; 2 nM, 14 hours, single values): 0.8722 and 0.7867 and 0.9195 and 0.9126 and 0.8033 and 0.8796 and 0.8243 and 0.8853; Relative bacterial viability ([9]; 20 nM, 0 hours, single values): 0.02896 and 0.02213 and 0.01772 and 0.01904 and 0.02117 and 0.02218 and 0.02462 and 0.0192; Relative bacterial viability ([9]; 20 nM, 2 hours, single values): 0.03873 and 0.03054 and 0.0347 and 0.03215 and 0.02983 and 0.02843 and 0.03279 and 0.02955; Relative bacterial viability ([9]; 20 nM, 4 hours, single values): 0.0705 and 0.06896 and 0.0607 and 0.07039 and 0.05304 and 0.06167 and 0.06352 and 0.06901; Relative bacterial viability ([9]; 20 nM, 6 hours, single values): 0.09036 and 0.1064 and 0.1059 and 0.1127 and 0.1209 and 0.1443 and 0.152 and 0.1417; Relative bacterial viability ([9]; 20 nM, 8 hours, single values): 0.1279 and 0.1203 and 0.1189 and 0.109 and 0.09529 and 0.09698 and 0.1178 and 0.11; Relative bacterial viability ([9]; 20 nM, 10 hours, single values): 0.1127 and 0.1159 and 0.1045 and 0.09171 and 0.08771 and 0.09868 and 0.1124 and 0.1197; Relative bacterial viability ([9]; 20 nM, 12 hours, single values): 0.09851 and 0.09831 and 0.1104 and 0.1131 and 0.09658 and 0.1085 and 0.1167 and 0.1091; EC50 ([9]; Enterococcus faecium, relative bacterial viability after 14 h incubation): 8.8 nM"
"Cc1nc2ccc(CN(C)c3ccc(C(=O)N[C@@H](CCC(=O)O)C(=O)O)s3)cc2c(=O)[nH]1 [RTX, raltitrexed]",13,12.6,8.2,7.94,> 100000,> 100000,10,10,14,12.6,> 100000,> 100000,> 100000,> 100000,> 100000,> 100000,> 100000,> 100000,–
"O=c1[nH]c(=O)n([C@@H]2O[C@H](CO)[C@@H](O)[C@H]2O)cc1F [5-FUrd, 5-fluorouridine]",73,79.4,720,794,21000,20000,65,79.4,98,100,270,251,380,398,30,31.6,10000,10000,–
NCC(=O)O [glycine],–,–,–,–,–,–,–,–,–,–,–,–,–,–,–,–,–,–,Relative bacterial viability ([9]; 50 mM glycine (Supplementary Fig. S2)): ~ 0.75; Relative bacterial viability ([9]; 100 mM glycine (Supplementary Fig. S2)): ~0.40
